Experiments:
[1] = in vivo; settings: BALB/c, mouse, plasma
Protocol: Formulation for pharmacokinetic studies used 2% or 10% N′,N′-dimethylacetamide, 10% propylene glycol, and 30% 2-hydroxypropyl-beta-cyclodextrin in water and a dose volume of 10 mL/kg (all routes of administration).
Briefly, mice were administered a 2 mg/kg or a 5 mg/kg dose (n=3 each) by IP injection (10 mL/kg dose volume) and blood samples collected at 0.08, 0.25, 0.5, 1, 2, 4, 8 and 24 hours post dose in tubes containing sodium heparin on ice. 100 μL of plasma was combined with 50 μL of internal standard (haloperidol, 10 μg/mL) and tubes were then spun at 4000 g for 10 min (4° C.) and plasma transferred to clean tubes and stored at −80° C. until analysis.
Blood samples were collected on ice in sodium heparin tubes at 0.08, 0.25, 0.5, 1, 2, 4, 8, and 24 hours post dose. Samples were prepared and analyzed as described above except here the internal standard was fluconazole (10 μg/mL).

[2] = Plasma protein binding, rapid equilibrium dialysis, dog; type: in vitro ADME; settings: n=1
Protocol: (§1) Plasma protein binding was performed with a rapid equilibrium dialysis (RED) device containing dialysis membrane with a molecular weight cut-off of 8,000 Daltons according to the manufacturer's instructions (ThermoFisher, USA). The plasma samples (pH 7.4) and the test compound solution (1 or 5 μM) or reference standards (Warfarin and Propranolol, 10 μM) were combined (DMSO final conc 0.1%). 300 μL of this spiked plasma sample was added to the sample chamber, and 500 μL of blank PBS buffer (pH 7.4) was added into the buffer chamber. The RED device was sealed with adhesive film and then incubated at 37° C. with shaking at 300 rpm for 4 h. Following incubation, an aliquot (50 μL) was removed from each well (spiked plasma and buffer side) and diluted with equal volume of the corresponding opposite matrix (blank buffer or blank plasma) to nullify the matrix effect, and then extracted for analysis by LC-MS/MS. The amount of free material was determined by:
(§2) % Free=(LC-MS/MS peak area of test compound in buffer side/LC-MS/MS peak area of test compound in plasma side)×100%

[3] = SAD study NP10679-101, plasma pharmacokinetics; type: in vivo, human
Protocol: Each cohort consisted of 8 subjects.
(±10° C.) until shipment.

[4] = Plasma protein binding, rapid equilibrium dialysis, human; type: in vitro ADME; settings: n=2
Protocol: as §1, §2

[5] = biological target: CYP3A4 (Homo sapiens (Human), UniProt P08684); experiment: Cytochrome P450 inhibition (Vivid CYP blue screening kit), CYP3A4; type: in vitro ADME; settings: 1 μM
CYP3A4, sequence (P08684 whole entry, canonical isoform): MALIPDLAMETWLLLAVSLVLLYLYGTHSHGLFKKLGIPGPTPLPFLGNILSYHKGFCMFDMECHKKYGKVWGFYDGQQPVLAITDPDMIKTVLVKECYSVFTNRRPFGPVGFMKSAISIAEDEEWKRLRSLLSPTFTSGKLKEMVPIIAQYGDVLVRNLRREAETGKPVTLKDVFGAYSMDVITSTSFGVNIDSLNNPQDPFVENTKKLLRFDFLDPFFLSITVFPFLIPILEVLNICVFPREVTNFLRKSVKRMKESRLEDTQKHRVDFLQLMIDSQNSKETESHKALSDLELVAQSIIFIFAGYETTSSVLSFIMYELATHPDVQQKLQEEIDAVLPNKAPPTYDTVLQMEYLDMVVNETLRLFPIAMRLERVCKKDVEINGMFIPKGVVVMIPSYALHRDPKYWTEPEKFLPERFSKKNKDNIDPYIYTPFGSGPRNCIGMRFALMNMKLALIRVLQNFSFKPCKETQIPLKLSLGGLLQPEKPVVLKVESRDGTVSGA
Protocol: Inhibition of CYP2D6 and CYP3A4 was accomplished using recombinant human isoforms and a Vivid CYP blue screening kit (Invitrogen, USA) by incubating 2-fold serial dilutions (9 samples) of the test compound with kit reagents and reaction buffer according to the manufacturer's methods in a 96-well plate. The plate was then incubated at room temperature for 30 min before fluorescence was measured with a plate reader. For these studies, reference standards ketoconazole (CYP3A4) and quinidine (CYP2D6) were used as controls.

[6] = biological target: 5-HT2A (Homo sapiens (Human), UniProt P28223); experiment: Off-target radioligand binding displacement (NIMH PDSP); settings: pH 7.4
5-HT2A, sequence (P28223 whole entry): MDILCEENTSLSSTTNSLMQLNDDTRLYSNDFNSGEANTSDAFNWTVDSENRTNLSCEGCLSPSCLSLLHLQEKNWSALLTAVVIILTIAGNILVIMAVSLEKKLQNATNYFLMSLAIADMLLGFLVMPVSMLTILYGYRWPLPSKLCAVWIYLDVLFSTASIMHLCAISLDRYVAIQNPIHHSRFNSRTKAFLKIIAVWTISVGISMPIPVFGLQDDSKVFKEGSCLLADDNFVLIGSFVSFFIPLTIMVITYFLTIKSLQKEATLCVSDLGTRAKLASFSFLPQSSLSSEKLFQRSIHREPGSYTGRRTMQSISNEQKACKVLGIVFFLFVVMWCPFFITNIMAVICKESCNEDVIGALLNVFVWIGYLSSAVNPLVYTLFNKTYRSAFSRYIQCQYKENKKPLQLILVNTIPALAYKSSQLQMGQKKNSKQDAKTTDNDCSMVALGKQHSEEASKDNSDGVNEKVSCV
Protocol: (§3) Briefly, the compound was submitted to the NIMH PDSP and screened at a single concentration (10 μM) of test article under equilibrium conditions for ability to displace specific radioligands from binding to their targets expressed in mammalian cell membranes in vitro. Each receptor target was assayed in quadruplicate and the % inhibition of radioligand binding at each target determined at pH 7.4. […]

[7] = clinical; settings: human, plasma, intravenous
Protocol: Subjects checked into the clinic on Day 1 and remained in the clinic through the 48 h post-dose blood draw on Day 7, after which time they were discharged. Subjects returned to the clinic for a follow-up visit at Day 9. […] Dose levels included 25, 50 and 100 mg.
Collection tubes containing K2EDTA were be used to collect 5 mL of whole blood sample at each time point. Immediately after collection, tubes were inverted to mix the anticoagulant with the blood sample. Tubes were then centrifuged at a speed of approximately 3000 g force for 10 minutes at 4° C. Within 5 minutes of centrifugation the plasma fraction was transferred into two equal aliquots (1.25 mL each) into 2 mL cryovials and then frozen and stored at −70° C.
The method was adapted and used to measure plasma samples by TMD Pharmaceutical Research (Newark, DE). […] Analytes were detected by multiple reaction monitoring using an MDS Sciex API 4000 mass spectrometer (AB Sciex, Framingham, MA) in positive mode.
The pharmacokinetic analysis was performed based on the non-compartmental analysis approach (M. Garibaldi and D Perrier, Pharmacokinetics 2nd Edition, Chapter 11, Marcel Dekker Inc., New York, 1982) using MS Excel®.

[8] = biological target: 5-HT1B (Homo sapiens (Human), UniProt P28222); experiment: Off-target radioligand binding displacement (NIMH PDSP); settings: pH 7.4
5-HT1B, sequence (P28222 whole entry, species assumed): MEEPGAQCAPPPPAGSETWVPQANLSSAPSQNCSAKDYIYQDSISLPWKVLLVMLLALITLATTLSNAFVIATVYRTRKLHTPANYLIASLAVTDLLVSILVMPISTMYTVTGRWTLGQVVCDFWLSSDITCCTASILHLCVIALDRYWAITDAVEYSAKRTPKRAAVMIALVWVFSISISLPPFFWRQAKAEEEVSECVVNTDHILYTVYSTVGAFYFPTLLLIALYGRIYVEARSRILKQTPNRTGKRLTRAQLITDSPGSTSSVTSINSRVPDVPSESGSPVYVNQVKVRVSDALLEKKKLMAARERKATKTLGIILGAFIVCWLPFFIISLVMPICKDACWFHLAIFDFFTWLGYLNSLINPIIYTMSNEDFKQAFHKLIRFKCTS
Protocol: as §3

[9] = biological target: GluN2A (Homo sapiens (Human), UniProt Q12879); experiment: Two electrode voltage-clamp recordings, single concentration, GluN2A; type: cell-based; settings: pH 6.9
GluN2A, sequence (Q12879 23-1464, other chains not shown): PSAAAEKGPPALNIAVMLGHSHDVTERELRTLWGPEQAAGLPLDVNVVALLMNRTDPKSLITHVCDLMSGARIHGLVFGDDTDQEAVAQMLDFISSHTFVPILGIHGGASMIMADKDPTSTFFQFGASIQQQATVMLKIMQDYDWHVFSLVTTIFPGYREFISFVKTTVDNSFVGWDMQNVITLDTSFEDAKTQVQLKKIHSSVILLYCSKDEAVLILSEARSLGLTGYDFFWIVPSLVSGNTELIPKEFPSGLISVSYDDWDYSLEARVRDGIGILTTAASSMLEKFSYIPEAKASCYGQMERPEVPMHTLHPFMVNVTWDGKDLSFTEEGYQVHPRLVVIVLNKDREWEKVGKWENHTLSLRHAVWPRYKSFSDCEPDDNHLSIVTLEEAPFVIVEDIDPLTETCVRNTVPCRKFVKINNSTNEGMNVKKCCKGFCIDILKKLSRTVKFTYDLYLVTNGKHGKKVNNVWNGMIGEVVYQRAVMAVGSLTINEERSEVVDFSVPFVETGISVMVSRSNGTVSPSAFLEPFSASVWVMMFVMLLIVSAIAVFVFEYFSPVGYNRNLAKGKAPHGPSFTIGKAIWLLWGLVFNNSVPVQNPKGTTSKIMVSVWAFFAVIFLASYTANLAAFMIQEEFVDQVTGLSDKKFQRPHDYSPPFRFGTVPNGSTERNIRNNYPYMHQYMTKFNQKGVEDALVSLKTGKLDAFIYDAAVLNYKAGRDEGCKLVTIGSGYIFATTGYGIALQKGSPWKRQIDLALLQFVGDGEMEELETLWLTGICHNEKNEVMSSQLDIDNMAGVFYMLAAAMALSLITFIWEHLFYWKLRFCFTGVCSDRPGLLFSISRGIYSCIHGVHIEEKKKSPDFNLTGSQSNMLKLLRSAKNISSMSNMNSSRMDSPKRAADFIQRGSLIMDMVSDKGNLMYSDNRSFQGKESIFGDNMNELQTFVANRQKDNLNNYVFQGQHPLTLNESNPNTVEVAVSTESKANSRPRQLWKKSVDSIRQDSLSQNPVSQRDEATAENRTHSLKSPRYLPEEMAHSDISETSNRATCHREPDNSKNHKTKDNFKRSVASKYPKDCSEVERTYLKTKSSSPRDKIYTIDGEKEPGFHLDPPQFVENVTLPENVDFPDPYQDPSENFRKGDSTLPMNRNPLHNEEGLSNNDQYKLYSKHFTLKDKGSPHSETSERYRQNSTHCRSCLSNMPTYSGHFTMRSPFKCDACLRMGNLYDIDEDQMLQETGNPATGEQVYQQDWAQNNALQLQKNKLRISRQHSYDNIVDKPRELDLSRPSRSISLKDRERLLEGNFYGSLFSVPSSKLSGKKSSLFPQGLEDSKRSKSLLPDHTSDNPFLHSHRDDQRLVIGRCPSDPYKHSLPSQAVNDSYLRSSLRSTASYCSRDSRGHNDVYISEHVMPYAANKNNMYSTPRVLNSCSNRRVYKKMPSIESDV

[10] = human, plasma, Cohort 1, 5 mg single IV
[11] = human, plasma, Cohort 2, 15 mg single IV
[12] = human, plasma, Cohort 3, 50 mg single IV
[13] = human, plasma, Cohort 4, 100 mg single IV
[14] = human, plasma, Cohort 5, 150 mg single IV
[15] = human, plasma, Cohort 6, 200 mg single IV

## O=C1CCc2cc(OC[C@H](O)CN3CCN(c4ccc(C(F)(F)F)cc4)CC3)ccc2N1 [NP10679]
[1]; iv, 3 mg/kg
  AUC(0-t): 17800 ng·h/mL
  Cmax: 2350 ng/mL
  Tmax: 0.08 h
  Vd: 1.59 L/kg
  clearance: 2.44 mL/min/kg
  half-life: 8.56 h
[1]; oral, 10 mg/kg
  bioavailability: 75.7%
[1]; po, 10 mg/kg
  AUC(0-inf): 49500 ng·h/mL
  AUC(0-t): 45000 ng·h/mL
  Cmax: 3600 ng/mL
  Tmax: 1 h
  half-life: 7.06 h
[1]; male, ip, 2 mg/kg
  AUC(0-inf): 5690 ng·h/mL
  AUC(0-t): 4750 ng·h/mL
  Cmax: 581 ng/mL
  Tmax: 0.5 h
  half-life: 9.9 h
[1]; male, ip, 5 mg/kg
  AUC(0-inf): 13100 ng·h/mL
  AUC(0-t): 11800 ng·h/mL
  Cmax: 1430 ng/mL
  Tmax: 0.5 h
  half-life: 7.5 to 9.9 h
[2]
  bound to dog plasma proteins: 98.2%
[3]; Cohort 1, 5 mg single IV
  AUMC(0-T) (ng*h^2/mL): 5794 ng*h^2/mL
  AUMC(0-inf) (ng*h^2/mL): 35856 ng*h^2/mL
  CL: 9.82 L/h
  Cmax: 26.96 ng/mL
[3]; Cohort 1, 5 mg single IV, harmonic mean
  T1/2*: 27.6 h
[3]; Cohort 2, 15 mg single IV
  AUMC(0-T) (ng*h^2/mL): 18219 ng*h^2/mL
  AUMC(0-inf) (ng*h^2/mL): 34553 ng*h^2/mL
[3]; Cohort 3, 50 mg single IV
  AUMC(0-T) (ng*h^2/mL): 61442 ng*h^2/mL
  AUMC(0-inf) (ng*h^2/mL): 114675 ng*h^2/mL
[3]; Cohort 4, 100 mg single IV
  AUMC(0-T) (ng*h^2/mL): 201642 ng*h^2/mL
  AUMC(0-inf) (ng*h^2/mL): 253651 ng*h^2/mL
[3]; Cohort 5, 150 mg single IV
  AUMC(0-T) (ng*h^2/mL): 286984 ng*h^2/mL
  AUMC(0-inf) (ng*h^2/mL): 323299 ng*h^2/mL
[3]; Cohort 6, 200 mg single IV
  AUMC(0-T) (ng*h^2/mL): 407581 ng*h^2/mL
  AUMC(0-inf) (ng*h^2/mL): 459611 ng*h^2/mL
  CL: 10.39 L/h
[3]; Cohort 6, 200 mg single IV, harmonic mean
  T1/2*: 17.4 h
[3]; human hepatic blood flow 87 L/h
  clearance as percent of the hepatic blood flow: less than 12%
[3]; human, plasma, intravenous, SAD and MAD studies, read-out: half-life (converted)
  half-life: ~20 h
[3]; human, plasma, iv, 5 mg, Cohort 1, 5 mg single IV
  clearance: 164 mL/min
[3]; human, plasma, iv, 5 mg, Cohort 1, 5 mg single IV, read-out: Cmax
  Cmax: 30 ± 14.8 ng/mL
[3]; human, plasma, iv, 15 mg, Cohort 2, 15 mg single IV
  clearance: 200 mL/min
[3]; human, plasma, iv, 15 mg, Cohort 2, 15 mg single IV, read-out: Cmax
  Cmax: 99.2 ng/mL
[3]; human, plasma, iv, 50 mg, Cohort 3, 50 mg single IV
  clearance: 183 mL/min
[3]; human, plasma, iv, 50 mg, Cohort 3, 50 mg single IV, read-out: Cmax
  Cmax: 415 ng/mL
[3]; human, plasma, iv, 100 mg, Cohort 4, 100 mg single IV
  clearance: 183 mL/min
[3]; human, plasma, iv, 100 mg, Cohort 4, 100 mg single IV, read-out: Cmax
  Cmax: 746 ng/mL
[3]; human, plasma, iv, 150 mg, Cohort 5, 150 mg single IV
  clearance: 182 mL/min
[3]; human, plasma, iv, 150 mg, Cohort 5, 150 mg single IV, read-out: Cmax
  Cmax: 954 ng/mL
[3]; human, plasma, iv, 200 mg, Cohort 6, 200 mg single IV
  clearance: 173 mL/min
[3]; human, plasma, iv, 200 mg, Cohort 6, 200 mg single IV, read-out: Cmax
  Cmax: 2070 ± 798 ng/mL
[3]; [10]
  AUC(0-inf): 533 ng·h/mL
  AUC(0-t): 335 ng·h/mL
  MRT: 52.9 h
[3]; human, plasma, Cohort 1, 5 mg single IV, harmonic mean, read-out: T1/2* (converted)
  half-life: 27.6 ± 12 h
[3]; human, plasma, Cohort 1, 5 mg single IV, read-out: Vss
  Vd: 435 L
[3]; [11]
  AUC(0-inf): 1280 ng·h/mL
  AUC(0-t): 1140 ng·h/mL
  MRT: 26.1 h
[3]; human, plasma, Cohort 2, 15 mg single IV, harmonic mean, read-out: T1/2* (converted)
  half-life: 20.4 h
[3]; human, plasma, Cohort 2, 15 mg single IV, read-out: Vss
  Vd: 306 L
[3]; [12]
  AUC(0-inf): 4680 ng·h/mL
  AUC(0-t): 3980 ng·h/mL
  MRT: 23.8 h
[3]; human, plasma, Cohort 3, 50 mg single IV, harmonic mean, read-out: T1/2* (converted)
  half-life: 17.8 h
[3]; human, plasma, Cohort 3, 50 mg single IV, read-out: Vss
  Vd: 255 L
[3]; [13]
  AUC(0-inf): 9860 ng·h/mL
  AUC(0-t): 9370 ng·h/mL
  MRT: 24.5 h
[3]; human, plasma, Cohort 4, 100 mg single IV, harmonic mean, read-out: T1/2* (converted)
  half-life: 19.8 h
[3]; human, plasma, Cohort 4, 100 mg single IV, read-out: Vss
  Vd: 259 L
[3]; [14]
  AUC(0-inf): 13800 ng·h/mL
  AUC(0-t): 13600 ng·h/mL
  MRT: 23 h
[3]; human, plasma, Cohort 5, 150 mg single IV, harmonic mean, read-out: T1/2* (converted)
  half-life: 17.9 h
[3]; human, plasma, Cohort 5, 150 mg single IV, read-out: Vss
  Vd: 250 L
[3]; [15]
  AUC(0-inf): 20200 ng·h/mL
  AUC(0-t): 19700 ng·h/mL
  MRT: 21.9 h
[3]; human, plasma, Cohort 6, 200 mg single IV, harmonic mean, read-out: T1/2* (converted)
  half-life: 17.4 ± 2.8 h
[3]; human, plasma, Cohort 6, 200 mg single IV, read-out: Vss
  Vd: 221 L
[3]; human, plasma, single IV 5 to 200 mg, read-out: volume of distribution
  Vd: > 221 L
[3]; in vivo
  volume of distribution as times of the total body water space: 4.5 times
[4]
  bound to human plasma proteins: 97.7%
[5]
  inhibition of CYP3A4: did not inhibit
[6]
  Ki: 0.638 µM
[7]; 25 mg
  Cmax: 213 ± 26 ng/mL
  Tmax: 0.5 h
  half-life: 15.4 to 36.2 h
[7]; 50 mg
  Cmax: 394 ± 72 ng/mL
  Tmax: 1 ± 0.4 h
  half-life: 15.5 to 25.6 h
[7]; 100 mg
  half-life: 12.5 to 34 h
[8]
  Ki: > 10 µM
[9]; 3 μM
  off-target inhibition against GluN2A: no noticeable off-target inhibition
[9]; % current remaining after 3 μM compound
  GluN2A % residual: 99.0 (pH 6.9) %

From patent US20240360091A1, “GLUN2B-SUBUNIT SELECTIVE ANTAGONISTS OF THE N-METHYL-D-ASPARTATE RECEPTORS WITH ENHANCED POTENCY AT ACIDIC PH” (Emory University, priority 2021, published 2024)
